Tested on: yeast lacking Yfh1p
Test: Yeast-based screening assay (WST-1 tetrazolium dye reduction)
Format: cell-based
Conditions: glycerol medium, 72 h, OD450, single dose 50 uM, activity threshold >1.32 fold increase in absorbance
Description: The aim of this assay is to identify compounds that can improve mitochondrial function in yeast lacking Yfh1p grown in a non-fermentable growth medium. The yeast Yfh1p expression construct used in this study has a galactose-inducible, glucose-repressible promoter driving Yfh1p production. Yfh1p is expressed when yeast are grown in the presence of galactose and inhibited when they are grown in the presence of dextrose. Growing the cells in the presence of dextrose not only turns off the expression of Yfh1p, but also leads to the depletion of Yfh1p in the cells. Transferring the Yfh1p-depleted cells into a non-fermentable, glycerol-based medium dictates that the yeast must use an oxidative pathway. […] Cleavage of the tetrazolium salt to formazan is accompanied by an increase in absorbance at 450 nm.
Compounds in the single dose assay were evaluated on the basis of Fold Induction compared to yeast only, and those in the dose response assay on percent activation, i.e. percent induction of tetrazolium dye reduction in yeast grown in a non-fermentable growth medium. Percent activation was calculated using the optical density in control wells with cells treated with positive control compound (25 uM methyl 4-(1, 2, 4, 5-tetraazin-3-yl) phenyl ether (MLSMR External ID: MLS000550612; PubChem SID: 14718875)) as full induction of tetrazolium dye reduction (100% activation), and wells with cells grown in medium without methyl 4-(1, 2, 4, 5-tetraazin-3-yl) phenyl ether as an indicator of 0% activation. Library compounds were screened at 50 uM. From the 50 uM single dose assay, 1250 compounds with significant tetrazolium dye reduction were selected for confirmatory dose response assay. These compounds were screened in a 10-point dilution series ranging from 0.01 to 100 uM.
The following screening protocol was followed. Yeast cells containing an inducible/repressible promoter for Yfh1p expression were cultured in induction medium (Yfh1 on) with Galactose as the carbon source, and then shifted to repression medium (Yfh1 off) with Dextrose as the carbon source (for 24 hours) to allow Yfh1 protein to decay. The cells were then incubated for 24 h in respiration-only medium (Yfh1 off) with Glycerol as the carbon source to allow cells to equilibrate, and then plated in 384 well plates in respiration-only medium (Yfh1 off) with glycerol as carbon source, in the presence of Tetrazolium dye (WST-1) for 72 hours.
Preparation of Assay • 1. Cells were streaked out on a YPGal agar plate and grown inverted for 3 days at 30 C. • 2. A colony was selected and 10 mL of YPGal medium inoculated and grown over night at 30 C with shaking. • 3. The cells were counted on a coulter counter, centrifuged at 1400 g for 5 min in dextrose (CSMM-D) medium, washed twice to remove all galactose, and resuspended in CSMM-D medium at a cell density of 2 to the power of 5 cells/mL. • 4. Frozen stocks were prepared at this point, in dextrose medium. For these dextrose stock solutions, enough culture was grown in dextrose media over night with shaking at 30 C, to get a cell density of ˜2 to the power of 7 cells/mL. The cells were centrifuged at 1400 g for 5 min and the pellet resuspended in glycerol freezing medium at a cell density of 2 to the power of 8 cells/mL. • 5. The day before the screen, frozen culture was thawed at room temperature and resuspended in glycerol (CSMM-G) medium. • 6. The culture was grown over night at 30 C with shaking and the cells counted and diluted in CSMM-G medium for a final cell density of 4 to the power of 6 cells/mL. • 7. Methyl 4-(1, 2, 4, 5-tetraazin-3-yl) phenyl ether (positive control), CSMM-G medium alone (negative control) and compounds were plated with DMSO at 200× concentration (final concentrations: methyl 4-(1, 2, 4, 5-tetraazin-3-yl) phenyl ether 25 uM, compounds 50 uM, DMSO 0.5%) in 384-well plates: 125 nL/well. For the dose response assay, compounds were plated in a 10-point dilution series ranging from 0.01 to 100 uM, at 1% DMSO. • 8. […]

Row | SMILES | active in the screen (tetrazolium dye reduction)
1 | CCCC(=O)NC(c1ccco1)c1cc([N+](=O)[O-])c2cccnc2c1O (centres unmarked) [N-[2-furyl(8-hydroxy-5-nitro-7-quinolinyl)methyl]butanamide] | active
2 | CCC(=O)NC(c1ccc(OC)c(OC)c1)c1cc(Cl)c2cccnc2c1O (centres unmarked) [N-[(5-chloro-8-hydroxyquinolin-7-yl)-(3,4-dimethoxyphenyl)methyl]propanamide] | active
3 | CCC(=O)NC(c1ccc(OC)cc1)c1cc(Cl)c2cccnc2c1O (centres unmarked) [N-[(5-chloro-8-hydroxyquinolin-7-yl)-(4-methoxyphenyl)methyl]propanamide] | active
4 | CCC(=O)NC(c1ccc(C)cc1)c1cc([N+](=O)[O-])c2cccnc2c1O (centres unmarked) [N-[(8-Hydroxy-5-nitro-quinolin-7-yl)-p-tolyl-methyl]-propionamide] | active
5 | CC(=O)NC(c1cccs1)c1cc([N+](=O)[O-])c2cccnc2c1O (centres unmarked) [N-[(8-hydroxy-5-nitro-quinolin-7-yl)-thiophen-2-yl-methyl]-acetamide] | active
6 | CCC(=O)NC(c1cccs1)c1cc([N+](=O)[O-])c2cccnc2c1O (centres unmarked) [N-[(8-hydroxy-5-nitro-quinolin-7-yl)-thiophen-2-yl-methyl]-propionamide] | active
7 | CCCC(=O)NC(c1cccs1)c1cc([N+](=O)[O-])c2cccnc2c1O (centres unmarked) [N-[(8-hydroxy-5-nitroquinolin-7-yl)-thiophen-2-ylmethyl]butanamide] | active
8 | CCCCC(=O)NC(c1ccccc1OC)c1ccc2cccnc2c1O (centres unmarked) [N-[(8-hydroxyquinolin-7-yl)-(2-methoxyphenyl)methyl]pentanamide] | active

Tested on: I154F FA cells
Test: I154F frataxin point-mutation model, rescue from FAC and/or BSO
Format: cell-based, murine
Conditions: not given
Description: 2. Preliminary testing in the I154F frataxin point-mutation model determines whether test compounds can rescue I154F FA cells from lethal concentrations of FAC and/or BSO. Among the mammalian-cell models that have, or recapitulate, the genetic defects underlying FA, by far the most robust (and best validated) is the I154F murine frataxin point-mutation model developed by Puccio and colleagues (Calmels, N. et al.), the first cellular model based on frataxin missense mutations that reproduces spontaneously the defects associated with Friedreich ataxia (PLoS One 4, e6379 (2009)). […] This model is also extremely stable, with phenotypes unchanged after months of continuous culture. In contrast, the mutations in available primary human FA fibroblasts are GAA repeat expansions in the first intron of the FXN gene; occasional cells in which these expansions contract have a growth advantage and take over the culture, diluting the phenotype and increasing variance in various measures of compound efficacy.
In another screen, testing was conducted in the I154F point-mutation model as described above, to determine whether test compounds could rescue I154F FA cells from lethal or sublethal concentrations of FAC and/or BSO. Effective in this screen were the following compounds: N-[(5-chloro-8-hydroxyquinolin-7-yl)-thiophen-2-ylmethyl]-3-phenylpropanamide, N-[(5-chloro-8-hydroxyquinolin-7-yl)-thiophen-2-ylmethyl]pentanamide, N-[(5-chloro-8-hydroxyquinolin-7-yl)-furan-2-ylmethyl]-3-phenylpropanamide, N-[(5-chloro-8-hydroxyquinolin-7-yl)-furan-2-ylmethyl]propanamide, N-[(5-chloro-8-hydroxyquinolin-7-yl)-furan-2-ylmethyl]pentanamide, N-[(5-chloro-8-hydroxyquinolin-7-yl)-tolyl]-3-phenylpropanamide, N-[(5-chloro-8-hydroxyquinolin-7-yl)-(3-methoxyphenyl)methyl]-3-phenylpropanamide, N-[(5-chloro-8-hydroxyquinolin-7-yl)-(4-dimethylaminophenyl)methyl]-3-phenylpropanamide, N-[(5-chloro-8-hydroxyquinolin-7-yl)-(4-chlorophenyl)methyl]-3-phenylpropanamide, N-[(5-chloro-8-hydroxyquinolin-7-yl)-(3-chlorophenyl)methyl]-3-phenylpropanamide, N-[(5-chloro-8-hydroxyquinolin-7-yl)-(2-chlorophenyl)methyl]-3-phenylpropanamide, N-[(5-chloro-8-hydroxyquinolin-7-yl)-(3,4-dimethoxyphenyl)methyl]-3-phenylpropanamide, N-[(5-chloro-8-hydroxyquinolin-7-yl)-(2,4-dimethoxyphenyl)methyl]-3-phenylpropanamide, N-[(5-chloro-8-hydroxyquinolin-7-yl)-(3,4,5-trimethoxyphenyl)methyl]-3-phenylpropanamide, N-[(5-chloro-8-hydroxyquinolin-7-yl)-(2-bromophenyl)methyl]-3-phenylpropanamide, N-[(5-chloro-8-hydroxyquinolin-7-yl)-p-tolyl-methyl]-3-phenylpropanamide, N-[(5-chloro-8-hydroxyquinolin-7-yl)-(2-hydroxyphenyl)methyl]-3-phenylpropanamide (1a-18), and N-[(5-chloro-8-hydroxyquinolin-7-yl)-(4-methoxyphenyl)methyl]-3-phenylpropanamide.

Row | SMILES | rescue of I154F FA cells from lethal or sublethal concentrations of FAC and/or BSO
9 | COc1ccc(C(NC(=O)CCc2ccccc2)c2cc(Cl)c3cccnc3c2O)c(OC)c1 (centres unmarked) [N-[(5-chloro-8-hydroxyquinolin-7-yl)-(2,4-dimethoxyphenyl)methyl]-3-phenylpropanamide] | Effective
10 | O=C(CCc1ccccc1)NC(c1ccccc1Br)c1cc(Cl)c2cccnc2c1O (centres unmarked) [N-[(5-chloro-8-hydroxyquinolin-7-yl)-(2-bromophenyl)methyl]-3-phenylpropanamide] | Effective
11 | O=C(CCc1ccccc1)NC(c1ccccc1Cl)c1cc(Cl)c2cccnc2c1O (centres unmarked) [N-[(5-chloro-8-hydroxyquinolin-7-yl)-(2-chlorophenyl)methyl]-3-phenylpropanamide] | Effective
12 | O=C(CCc1ccccc1)NC(c1ccccc1O)c1cc(Cl)c2cccnc2c1O (centres unmarked) [N-[(5-chloro-8-hydroxyquinolin-7-yl)-(2-hydroxyphenyl)methyl]-3-phenylpropanamide] | Effective
13 | COc1cc(C(NC(=O)CCc2ccccc2)c2cc(Cl)c3cccnc3c2O)cc(OC)c1OC (centres unmarked) [N-[(5-chloro-8-hydroxyquinolin-7-yl)-(3,4,5-trimethoxyphenyl)methyl]-3-phenylpropanamide] | Effective
14 | COc1ccc(C(NC(=O)CCc2ccccc2)c2cc(Cl)c3cccnc3c2O)cc1OC (centres unmarked) [N-[(5-chloro-8-hydroxyquinolin-7-yl)-(3,4-dimethoxyphenyl)methyl]-3-phenylpropanamide] | Effective
15 | O=C(CCc1ccccc1)NC(c1cccc(Cl)c1)c1cc(Cl)c2cccnc2c1O (centres unmarked) [N-[(5-chloro-8-hydroxyquinolin-7-yl)-(3-chlorophenyl)methyl]-3-phenylpropanamide] | Effective
16 | COc1cccc(C(NC(=O)CCc2ccccc2)c2cc(Cl)c3cccnc3c2O)c1 (centres unmarked) [N-[(5-chloro-8-hydroxyquinolin-7-yl)-(3-methoxyphenyl)methyl]-3-phenylpropanamide] | Effective
17 | O=C(CCc1ccccc1)NC(c1ccc(Cl)cc1)c1cc(Cl)c2cccnc2c1O (centres unmarked) [N-[(5-chloro-8-hydroxyquinolin-7-yl)-(4-chlorophenyl)methyl]-3-phenylpropanamide] | Effective
18 | CN(C)c1ccc(C(NC(=O)CCc2ccccc2)c2cc(Cl)c3cccnc3c2O)cc1 (centres unmarked) [N-[(5-chloro-8-hydroxyquinolin-7-yl)-(4-dimethylaminophenyl)methyl]-3-phenylpropanamide] | Effective
19 | COc1ccc(C(NC(=O)CCc2ccccc2)c2cc(Cl)c3cccnc3c2O)cc1 (centres unmarked) [N-[(5-chloro-8-hydroxyquinolin-7-yl)-(4-methoxyphenyl)methyl]-3-phenylpropanamide] | Effective
20 | O=C(CCc1ccccc1)NC(c1ccco1)c1cc(Cl)c2cccnc2c1O (centres unmarked) [N-[(5-chloro-8-hydroxyquinolin-7-yl)-furan-2-ylmethyl]-3-phenylpropanamide] | Effective
21 | CCCCC(=O)NC(c1ccco1)c1cc(Cl)c2cccnc2c1O (centres unmarked) [N-[(5-chloro-8-hydroxyquinolin-7-yl)-furan-2-ylmethyl]pentanamide] | Effective
22 | CCC(=O)NC(c1ccco1)c1cc(Cl)c2cccnc2c1O (centres unmarked) [N-[(5-chloro-8-hydroxyquinolin-7-yl)-furan-2-ylmethyl]propanamide] | Effective
23 | Cc1ccc(C(NC(=O)CCc2ccccc2)c2cc(Cl)c3cccnc3c2O)cc1 (centres unmarked) [N-[(5-chloro-8-hydroxyquinolin-7-yl)-p-tolyl-methyl]-3-phenylpropanamide] | Effective
